Experimental data taken from paper PMC9435431, “Novel chemical entities inhibiting Mycobacterium tuberculosis growth identified by phenotypic high-throughput screening” (Scientific Reports, 2022).
In brackets after ≈: the same amount, converted by molar mass. Where two headings read alike, the source gives them in different places.

Legend:
[1] = system: M. tuberculosis H37Rv; experiment: microbe, parasite or virus in culture; type: cell-based; details: Mycobacterium tuberculosis, 120 h
[2] = system: wild-type M. tuberculosis; experiment: microbe, parasite or virus in culture; type: cell-based, Mycobacterium tuberculosis; details: for MIC / IC90: Mycobacterium tuberculosis
[3] = in vitro; type: cell-based; details: human; for IC20: concentration for 20% inhibition of HepG2 cells, 72 h, n = 2
Protocol: HepG2 cells were seeded at 2000 cells per well in 384-well, black, clear bottom PDL coated plates in MEM medium supplemented with 10% FBS, 2 mM L-glutamine, 1 mM sodium pyruvate and incubated overnight at 37C, 5% CO2. Compounds were added and plates incubated for 72 h. Cell viability was measured using the CyQUANT® reagent and imaging on a ViewLux™ ultraHTS Microplate Imager. The IC20 and IC50 were calculated from dose response curves.

[4] = in vitro; type: in vitro ADME, human; details: for microsomal clearance / stability (in words): human microsomes; for CLint scaled at 0.5 µM: human, microsomes, pH 7.4, human Clint
Protocol: Compounds (0.5 µM) were incubated with 0.25 mg/mL liver microsomal proteins at pH 7.4 at 37 °C. Reactions were initiated with […] and samples taken at 0, 5, 10, 15, 20 and 30 min. The reaction was stopped by addition of 95% ACN/5% MeOH containing an internal standard. Samples were combined in compound groups of six pre-sorted by mono molecular weight and analyzed by LC/MS/MS. The peak area ratios (analyte peak area/IS peak area) were converted to % remaining using the area ratio at time 0 as 100%. The. half-life (T ½) and intrinsic clearance (mCLint) were calculated.

[5] = Table 5, read-out: Wild-type MIC

Row | SMILES | inhibition at 20 µM ([1]; read-out: % Inhibition Run 1) [%] | inhibition at 20 µM ([1]; read-out: % Inhibition Run 2) [%] | MIC ([2]; read-out: MTB MIC) [µM] | IC20 at 72 h [3] [µM] | MIC ([2]; 120 h, read-out: MIC) [µM] | also measured
1 | c1ccc(-c2cncc(N3CC4CC5CC3CN(C5)C4)c2)cc1 (stereo not shown) [AAP] | 99 | 97 | – | – | – | MIC ([2]; 120 h, read-out: MTB MIC): 23 µM (≈ 7.02 µg/mL); IC20 [3]: 27 µM
2 | Nc1ccnc(Nc2ccccc2Nc2ccccc2)n1 [DAP] | 99 | 99 | 0.7 (≈ 0.194 µg/mL) | 0.83 | – | –
3 | CCOC(=O)c1oc2c(c1C)-c1nc(C)sc1CC2 [TZF] | 99 | 99 | 18 (≈ 4.99 µg/mL) | > 80 | – | –
4 | Cc1cc(NC2CCCCC2)nc(-n2nc(C)cc2C)n1 [PZP-3] | 98 | 98 | 4.5 (≈ 1.28 µg/mL) | 47 | – | IC90 [2]: 4.5 µM
5 | O=C(Nc1nc2ccccc2s1)NC1C2CC3CC(C2)CC1C3 (stereo not shown) [HBU-1] | 100 | 100 | – | 8.2 | – | IC90 [2]: 4.2 µM; MIC ([2]; 120 h, read-out: MTB MIC): 4.2 µM (≈ 1.38 µg/mL)
6 | O=C(c1c(Cl)cccc1Cl)N1COCN(c2ccc(C(F)(F)F)cc2)C1=O [ACU-1] | 98 | 98 | 7.6 (≈ 3.19 µg/mL) | 65 | – | –
7 | CN(Cc1cn2c3ccccc3n(C)c2n1)C12CC3CC(CC(C3)C1)C2 [PZI] | 98 | 98 | 9.3 (≈ 3.24 µg/mL) | 15 | – | –
8 | CNC(=O)N(O)C1c2cccc(F)c2Oc2ccsc21 (stereo not shown) [HDU-2] | 99 | 100 | 19 (≈ 5.59 µg/mL) | 42 | – | –
9 | CC(=O)n1nccc1-c1sc(-c2cccs2)nc1C [TPT] | 99 | 99 | 7.1 (≈ 2.05 µg/mL) | > 80 | – | IC90 [2]: 7.1 µM
10 | Clc1ccc(-c2nc(Cn3ccnc3)cs2)cc1 [AMT-1] | 98 | 96 | 35 (≈ 9.65 µg/mL) | 34 | – | –
11 | CCC(=O)Nc1nc(-c2nc3ccccc3oc2=O)cs1 [BOZ] | 99 | 100 | 4.8 (≈ 1.45 µg/mL) | 37 | – | –
12 | CNc1cc(-c2ccccn2)nc(-c2ccccn2)n1 [APDP-1] | 99 | 100 | 10 (≈ 2.63 µg/mL) | 0.028 | – | IC90 [2]: 10 µM
13 | N#C/C(=C\NC1CCCCC1)c1nc2ccccc2[nH]1 [BCI-2] | 100 | 100 | 9.6 (≈ 2.56 µg/mL) | 0.85 | – | –
14 | CC(=O)n1cc(Nc2ccccc2O)c2ccccc21 [ACI-2] | 100 | 100 | 4.5 (≈ 1.2 µg/mL) | 30 | – | –
15 | c1ccc(N2CCN(Cc3cnc4ccccc4n3)CC2)cc1 [AMQ-5] | 98 | 99 | 7.8 (≈ 2.37 µg/mL) | 2 | – | –
16 | C=CCc1c(C)nc(-c2ccccn2)nc1O [PDPO-1] | 99 | 96 | 23 (≈ 5.23 µg/mL) | 2.8 | – | –

Row | SMILES | inhibition at 20 µM ([1]; read-out: % Inhibition Run 1) [%] | inhibition at 20 µM ([1]; read-out: % Inhibition Run 2) [%] | MIC ([2]; read-out: MTB MIC) [µM] | IC20 at 72 h [3] [µM] | MIC ([2]; 120 h, read-out: MIC) [µM] | also measured
17 | NCC(c1ccco1)S(=O)(=O)c1ccccc1 (stereo not shown) [FAS] | 100 | 100 | 9.5 (≈ 2.39 µg/mL) | 2 | – | –
18 | CC(C)c1ccc(-n2nnn(C(=O)N(C)C3CCOCC3)c2=O)cc1Cl [PTZ-3] | 96 | 6 | 5.2 (≈ 1.98 µg/mL) | – | – | IC20 [3]: 26 µM
19 | O=C(NCCc1cccc(C(F)(F)F)c1)C1(c2ccccc2)COC1 [PCB-28, 3-phenyl-N-(3-(trifluoromethyl)phenethyl)oxetane-3-carboxamide] | – | – | – | – | 9.1 ± 0.8 (≈ 3.18 µg/mL) | anti-tubercular activity (in words) [2]: loss in activity; microsomal clearance / stability (in words) [4]: improved clearance; CLint scaled at 0.5 µM [4]: 13.9 L/h/kg
20 | Cc1nc2ccccn2c1-c1ccn(Cc2ccccc2)n1 [PPP-1] | 100 | 98 | 38 (≈ 11 µg/mL) | 4.3 | – | –
21 | O=C(NCCc1cccc(Br)c1)C1(c2ccc(Cl)cc2)CCC1 [PCB-15, N-(3-bromophenethyl)-1-(4-chlorophenyl)cyclobutane-1-carboxamide] | – | – | – | – | 9.7 ± 6.7 (≈ 3.81 µg/mL) | anti-tubercular activity (in words) [2]: slight reduction; microsomal clearance / stability (in words) [4]: clearances increased; CLint scaled at 0.5 µM [4]: 559 L/h/kg
22 | CCC1(N2CCC(c3ccccc3)CC2)CCCCC1 [Molecule 4PP-1, 1-(1-Ethyl-cyclohexyl)-4-phenyl-piperidine] | 100 | 99 | 6.3 (≈ 1.71 µg/mL) | – | 6.3 ± 2.7 (≈ 1.71 µg/mL) | IC90 [2]: 6.3 µM; MIC [2, 5]: 6.3 µM (≈ 1.71 µg/mL); MIC ([2]; read-out: MIC): 6.3 µM (≈ 1.71 µg/mL); IC20 [3]: > 80 µM
23 | O=C(NCCc1cccc(Br)c1)C1(c2ccccc2C(F)(F)F)CCC1 [PCB-22, N-(3-bromophenethyl)-1-(2-(trifluoromethyl)phenyl)cyclobutane-1-carboxamide] | – | – | – | – | 5.7 ± 2.8 (≈ 2.43 µg/mL) | CLint scaled at 0.5 µM [4]: 975 L/h/kg
24 | O=S(=O)(Nc1ccccc1-c1nn[nH]n1)c1ccc(OC(F)(F)F)cc1 [APT] | 99 | 99 | 6.9 (≈ 2.66 µg/mL) | 0.47 | – | –
25 | O=C(NCCc1cccc(Br)c1)C1(c2ccccc2)CC(F)(F)C1 [PCB-24, N-(3-bromophenethyl)-3,3-difluoro-1-phenylcyclobutane-1-carboxamide] | – | – | – | – | 15 ± 3.7 (≈ 5.91 µg/mL) | MIC ([2]; read-out: MIC): 15 µM (≈ 5.91 µg/mL); microsomal clearance / stability (in words) [4]: poor microsomal stability; CLint scaled at 0.5 µM [4]: 263 L/h/kg
26 | O=C(NCCc1cccc(Br)c1)C1(c2ccccc2Cl)CCC1 [PCB-17, N-(3-bromophenethyl)-1-(2-chlorophenyl)cyclobutane-1-carboxamide] | – | – | – | – | 1.8 ± 0.7 (≈ 0.707 µg/mL) | anti-tubercular activity (in words) [2]: increase in activity; MIC [2, 5]: 1.8 µM (≈ 0.707 µg/mL); microsomal clearance / stability (in words) [4]: clearances increased; CLint scaled at 0.5 µM [4]: 673 L/h/kg
27 | Cc1cnc(-n2nnc3ccccc3c2=O)s1 [BTT] | 100 | 100 | 4.8 (≈ 1.17 µg/mL) | 37 | – | –
28 | Cc1ccc(-c2nnc(C)c(N3CCCC3)n2)cc1 [PYT] | 100 | 98 | 11 (≈ 2.8 µg/mL) | 23 | – | IC90 [2]: 11 µM
29 | Brc1cccc(-c2nc(C3(c4ccccc4)CCC3)no2)c1 [PCB-13, 5-(3-bromophenyl)-3-(1-phenylcyclobutyl)-1,2,4-oxadiazole] | – | – | – | – | > 20 | anti-tubercular activity (in words) [2]: loss of activity; microsomal clearance / stability (in words) [4]: high clearance; CLint scaled at 0.5 µM [4]: 266 L/h/kg
30 | O=C(N[C@H]1CCc2ccc(Br)cc2C1)C1(c2ccccc2)CCC1 [PCB-9, (S)-N-(7-bromo-1,2,3,4-tetrahydronaphthalen-2-yl)-1-phenylcyclobutane-1-carboxamide] | – | – | – | – | 6.9 ± 2.9 (≈ 2.65 µg/mL) | MIC ([2]; read-out: MIC): 6.9 µM (≈ 2.65 µg/mL); microsomal clearance / stability (in words) [4]: increased microsomal clearance; CLint scaled at 0.5 µM [4]: 273 L/h/kg
31 | O=C(Nc1ncc2c(Br)cccc2n1)C1(c2ccccc2)CCC1 [PCB-10, N-(5-bromoquinazolin-2-yl)-1-phenylcyclobutane-1-carboxamide] | – | – | – | – | 9.3 ± 1 (≈ 3.56 µg/mL) | MIC ([2]; read-out: MIC): 9.3 µM (≈ 3.56 µg/mL); microsomal clearance / stability (in words) [4]: reasonable clearance; CLint scaled at 0.5 µM [4]: 14.4 L/h/kg
32 | COc1cc(CCNC(=O)C2(c3ccccc3)CCC2)ccc1O [PCB-3, N-(4-hydroxy-3-methoxyphenethyl)-1-phenylcyclobutane-1-carboxamide] | – | – | – | – | > 20 | MIC ([2]; read-out: MIC): > 20 µM; microsomal clearance / stability (in words) [4]: clearance was improved; CLint scaled at 0.5 µM [4]: 12.5 L/h/kg
